# “Also recorded” adds a separate entry of the source. Non-standard residues stand in square brackets, D forms with d. Residues, ends and D or L forms follow the SMILES beside them. *: point of attachment. NBD = O=[N+]([O-])c1ccc(*)c2nonc12; Nle = CCCC[C@H](N)C(=O)O; Ahx = NCCCCCC(=O)O
# Tests used:
# [1] = test system: Methicillin sensitive S. aureus, K. pneumoniae and P. aeruginosa; assay: Bacterial affinity: fluorescence retention following a PBS wash (confocal); type: cell-based; settings: 10 µM, two gentle PBS washes, three bacterial species, n=3
# Procedure: Three compounds (UBI-3, UBI-5 and UBI-10) were assessed for further evaluation. […] In vitro affinity of bacterial binding was assessed by incorporating a wash step in the live confocal imaging protocol with a panel of bacteria with the ‘wash-off’ representing a surrogate indicator of Smartprobe-bacterial labelling affinity. […] UBI-10, therefore, was assessed further in a clinically relevant biological system.
# Figure S4. Quantified fluorescence of confocal microscopy images of the compounds UBI-3, UBI-5 and UBI-10 on three bacteria and fluorescence retention following a PBS wash. Quantification of fluorescence intensity of (A) Methicillin sensitive S. aureus, (B) K. pneumoniae and (C) and P. […]
# intensity following a PBS wash. […]
# (§1) Confocal Analysis and Fluorescence Quantification: 8-Well Lab-Tek II Confocal Chambers (VWR, PA, USA) were coated in fibronectin (for neutrophil experiments) or poly-d-lysine (for bacteria) at 37 °C for 20 minutes, then washed in PBS prior to bacterial innoculation. For co-culture assays, neutrophils were seeded on fibronectin coated wells at 1 x 10^5 neutrophils per well for 20 minutes and non-adherent neutrophils aspirated. Bacteria were added to each chamber to a final concentration of 0.5 OD595 nm with the desired final concentration of Smartprobe. A laser-scanning confocal imaging system (LSM510; Carl Zeiss, Jena, Germany), incorporating an upright Axioskop FS2 microscope (63× objective) was used for image acquisition and processing. Exposure to 488 nm light was limited to 5% of the maximum laser power in order to minimize toxicity. ‘Green’ fluorescence (for FAM and NBD) was excited with a dedicated 488 nm line and emitted light detected with meta detector (500-530 nM).
# (§2) Syto nuclear and dyes were excited with a dedicated 543 nm line, and emitted light detected with meta detector (570-610 nM). Fields of view were chosen based on the counterstain and at least three fields of view were recorded for each condition. For affinity assays, following initial imaging, the fluid was aspirated and two gentle washes with PBS were performed. The chamber was re-imaged on confocal.
# (§3) Analysis was with ImageJ (version 1.46r, National Institutes of Health, USA); the Syto channel was automatically thresholded (MaxEntropy, with a set threshold 0-47) and an ROI generated from this. The […]
# (§4) mean fluorescence intensity on the probe channel within this ROI was quantified. Data presented represents the mean of three experiments, from each of which three separate fields of view were assessed. All experiments were performed at least three times unless otherwise stated and results expressed as mean ± SEM. Data was analysed by unpaired t-test and significance was determined as p<0.05 (GraphPad Prism version 5.01 for Windows, GraphPad Software, San Diego California USA).
# Ex vivo Human Lung and FCFM Procedure: Human lung samples were obtained from patients undergoing surgical resection for lung carcinoma. All images were obtained on sections of normal lung away from the cancerous growth. Informed consent was obtained and the study was approved by the Regional Ethics Committee. Samples were taken fresh from the operating theatre, dissected into 4mm sections and placed in wells of 96 well plate. Bacteria were pre-labelled with Smartprobe or Calcein AM and co-cultured in the well with a maximum volume of 100µl. […]
# [2] = test system: methicillin-sensitive Staphylococcus aureus; assay: Confocal labelling of MSSA with quantified fluorescence; type: cell-based
# Procedure: Fig. 6 Confocal Images of compounds UBI-3 to 9 with quantified fluorescence. Panels show methicillin-sensitive Staphylococcus aureus incubated with UBI-3 to 9 (all 10 μM) with quantification of bacterial fluorescence normalized to UBI-3 (bars represent mean (±SEM), n ≥ 3, ns = not significant, *** = p < 0.001, * = p < 0.05, scale bar = 10 μm).
# Fig. 8 Confocal images and quantification of cyclic variants when compared to UBI-3. Panels show methicillin-sensitive Staphylococcus aureus incubated with cyclic UBI compounds (all 10 μM) with quantification of bacterial fluorescence normalized to UBI-3 (bars represent mean (±SEM), n ≥ 3, ns = not significant, ** = p < 0.01, scale bar = 10 μm).
# Bacterial Culture and Labelling: Bacteria used were K. pneumoniae (ATCC BAA1706) ATCC, E. coli (ATCC 25922) ATCC, A. baumannii (J3433) Clinical Isolate, P. aeruginosa (J3284) Clinical Isolate, Methicillin Resistant S. aureus (MRSA) (ATCC25923) ATCC and Methicillin Sensitive S. aureus (MSSA) (ATCC 252) ATCC. All bacteria were grown on Lysogeny broth (LB) agar and from a single bacterial colony placed into 10ml of LB and incubated at 37°C for 16 hours in an orbital shaker.
# Cultures were centrifuged at 4000rpm for 5 minutes and the pellet resuspended in 1ml phosphate buffered saline (PBS, Life Technologies). Following three further washes in PBS the cultures were reconstituted to 1 OD595 nm. Bacteria were counterstained with 5µM Syto 82 orange fluorescent nucleic acid stain (Invitrogen, CA, USA) in a shaking heat block at 37 °C for 20 minutes. For FCFM bacteria were stained with 1µM Calcein AM (Sigma, MO, USA) for 30 minutes at 37 °C. Counterstained bacteria were washed in PBS to remove excess dye. […]
# as §1, §2, §3, §4
# Ex vivo Human Lung and FCFM Procedure: Human lung samples were obtained from patients undergoing surgical resection for lung carcinoma. All images were obtained on sections of normal lung […]
# [3] = 0.5 μM to 50 μM, methicillin sensitive S. aureus
Structure (SMILES),fluorescence following labelling and a PBS wash [1],"concentration dependence of bacterial labelling [2, 3]","relative fluorescence of labelled bacteria compared with the other compounds [2, 3]","bacterial labelling (fluorescence compared with UBI-3) ([2]; MSSA, 10 μM, fluorescence normalized to UBI-3, mean ± SEM, n ≥ 3)"
CCCC[C@H](NC(=O)[C@H](CCCNC(=N)N)NC(=O)[C@H](CCCNC(=N)N)NC(=O)[C@H](CCCCN)NC(=O)[C@H](C)NC(=O)[C@H](CCCNC(=N)N)NC(=O)CNC(=O)[C@@H](NC(=O)CCCCCNc1ccc([N+](=O)[O-])c2nonc12)[C@@H](C)O)C(=O)N[C@@H](CCC(N)=O)C(=O)N[C@@H](Cc1ccc(O)cc1)C(=O)N[C@@H](CC(N)=O)C(=O)N[C@@H](CCCNC(=N)N)C(=O)N[C@@H](CCCNC(=N)N)C(N)=O [UBI-3] ({NBD-Ahx}-TGRAKRR[Nle]QYNRR-NH2),significantly lower fluorescence,concentration dependent manner; also recorded: concentration dependent increase in bacterial fluorescence,–,–
CCCC[C@@H]1NC(=O)[C@H](CCCNC(=N)N)NC(=O)[C@H](CCCNC(=N)N)NC(=O)[C@H](CCCCN)NC(=O)[C@H](C)NC(=O)[C@H](CCCNC(=N)N)NC(=O)CNC(=O)[C@H]([C@@H](C)O)NC(=O)[C@@H](NC(=O)CCCCCNc2ccc([N+](=O)[O-])c3nonc23)CCCCNC(=O)CNC(=O)[C@H](CCCNC(=N)N)NC(=O)[C@H](CCCNC(=N)N)NC(=O)[C@H](CC(N)=O)NC(=O)[C@H](Cc2ccc(O)cc2)NC(=O)[C@H](CCC(N)=O)NC1=O [UBI-10],retains a significant fluorescence intensity,concentration dependent manner; also recorded: concentration dependent increase in bacterial fluorescence,higher than UBI-3 or UBI-5 labelled bacteria; also recorded: higher fluorescence (per molar equivalents) at all concentrations tested,significantly higher signal; also recorded: improved bacterial labelling
